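Five compound concentrations were applied to cells in 96-well plates for 48 hours; endpoints were derived by simple linear interpolation of the resulting dose-response curve. TGI denotes the concentration required for complete inhibition of growth.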
Key:
Test in all cases: NCI anticancer screen, dose series, 48 h
ACHN renal = system: ACHN renal
CCRF-CEM leukemia = system: CCRF-CEM leukemia
COLO 205 colon = system: COLO 205 colon
DU-145 prostate = system: DU-145 prostate
HCC-2998 colon = system: HCC-2998 colon
HCT-15 colon = system: HCT-15 colon
RXF 393 renal = system: RXF 393 renal
U251 CNS = system: U251 CNS
MALME-3M melanoma = system: MALME-3M melanoma
A498 renal = system: A498 renal

O=C1/C(=C/c2ccccc2)Oc2cc(O)ccc21
TGI (ACHN renal): > 100 µM
TGI (CCRF-CEM leukemia): > 100 µM
TGI (COLO 205 colon): > 100 µM
TGI (DU-145 prostate): > 100 µM
TGI (HCC-2998 colon): > 100 µM
TGI (HCT-15 colon): > 100 µM
TGI (RXF 393 renal): > 100 µM
TGI (U251 CNS): > 100 µM

O=C(CNc1ccccc1C(=O)O)Nn1cnc2ccc(S(=O)(=O)Nc3ccccc3C(=O)O)cc2c1=O
TGI (ACHN renal): > 100 µM
TGI (CCRF-CEM leukemia): > 100 µM
TGI (COLO 205 colon): > 100 µM
TGI (DU-145 prostate): > 100 µM
TGI (HCC-2998 colon): > 100 µM
TGI (HCT-15 colon): > 100 µM
TGI (MALME-3M melanoma): > 100 µM
TGI (U251 CNS): > 100 µM

c1cnc2c(c1)-n1cccc1C1(CCCCC1)NN2
TGI (ACHN renal): > 100 µM
TGI (CCRF-CEM leukemia): > 100 µM
TGI (COLO 205 colon): > 100 µM
TGI (HCC-2998 colon): > 100 µM
TGI (HCT-15 colon): > 100 µM
TGI (MALME-3M melanoma): > 100 µM

C=C(C)C1CC(=O)C(C)=C(O)C1 (centres undefined)
TGI (ACHN renal): > 100 µM
TGI (CCRF-CEM leukemia): > 100 µM
TGI (COLO 205 colon): > 100 µM
TGI (DU-145 prostate): > 100 µM
TGI (HCC-2998 colon): > 100 µM
TGI (HCT-15 colon): > 100 µM
TGI (MALME-3M melanoma): > 100 µM
TGI (U251 CNS): > 100 µM

CCC1(O)CC(CCN(Cc2ccccc2)C(=O)OCc2ccccc2)C(OCc2ccccc2)C1O (centres undefined)
TGI (ACHN renal): 32.2 µM
TGI (CCRF-CEM leukemia): 81.7 µM
TGI (COLO 205 colon): 34.2 µM
TGI (DU-145 prostate): 36.3 µM
TGI (HCC-2998 colon): 28.9 µM
TGI (HCT-15 colon): 31.7 µM
TGI (RXF 393 renal): 41.9 µM
TGI (U251 CNS): > 100 µM

CC(C)CCCC(C)[C@H]1CCC(C2C[C@@H](O)[C@@H]3CC(O)[C@@H](O)C[C@]3(CO)C2=O)[C@]1(C)CCO (some centres undefined)
TGI (A498 renal): 48.9 µM
TGI (CCRF-CEM leukemia): 40.9 µM
TGI (COLO 205 colon): 35 µM
TGI (HCC-2998 colon): 38.4 µM
TGI (HCT-15 colon): > 66.8 µM
TGI (MALME-3M melanoma): 44.8 µM
TGI (RXF 393 renal): 53.3 µM
TGI (U251 CNS): 37.7 µM

CC(=O)C(=Cc1cn(C)c(=O)n(C)c1=O)C(C)=O
TGI (A498 renal): 290 µM
TGI (CCRF-CEM leukemia): 294 µM
TGI (COLO 205 colon): 189 µM
TGI (HCC-2998 colon): 264 µM
TGI (HCT-15 colon): 218 µM
TGI (MALME-3M melanoma): 201 µM
TGI (RXF 393 renal): 148 µM
TGI (U251 CNS): 223 µM

C[s+]1c2ccccc2c2ccccc21
TGI (ACHN renal): > 100 µM
TGI (CCRF-CEM leukemia): > 100 µM
TGI (COLO 205 colon): > 100 µM
TGI (HCC-2998 colon): > 100 µM
TGI (HCT-15 colon): > 100 µM
TGI (MALME-3M melanoma): > 100 µM
TGI (RXF 393 renal): > 100 µM
TGI (U251 CNS): > 100 µM

O=C(c1ccccc1)C1N=NN(Cc2ccccc2[N+](=O)[O-])C1C(=O)c1ccccc1 (centres undefined)
TGI (ACHN renal): > 100 µM
TGI (CCRF-CEM leukemia): > 100 µM
TGI (COLO 205 colon): > 100 µM
TGI (HCC-2998 colon): > 100 µM
TGI (HCT-15 colon): > 100 µM
TGI (MALME-3M melanoma): > 100 µM
TGI (RXF 393 renal): > 100 µM
TGI (U251 CNS): > 100 µM

Cc1cc(=O)[nH]c(NNC(C#N)c2cccc([N+](=O)[O-])c2)n1 (centres undefined)
TGI (ACHN renal): > 100 µM
TGI (CCRF-CEM leukemia): > 100 µM
TGI (COLO 205 colon): > 100 µM
TGI (HCT-15 colon): > 100 µM
TGI (MALME-3M melanoma): > 100 µM
TGI (RXF 393 renal): > 100 µM
TGI (U251 CNS): > 100 µM

CC(C)(C)C(=O)Nc1c(C=O)ccc2[nH]cnc12
TGI (A498 renal): > 100 µM
TGI (ACHN renal): > 100 µM
TGI (CCRF-CEM leukemia): > 100 µM
TGI (COLO 205 colon): > 100 µM
TGI (HCC-2998 colon): > 100 µM
TGI (HCT-15 colon): > 100 µM
TGI (RXF 393 renal): > 100 µM
TGI (U251 CNS): > 100 µM

N#Cc1c(-c2ccc([N+](=O)[O-])cc2)c(C#N)c(=O)n(NS(=O)(=O)c2ccccc2)c1S
TGI (A498 renal): > 100 µM
TGI (ACHN renal): > 100 µM
TGI (CCRF-CEM leukemia): 49.3 µM
TGI (COLO 205 colon): > 100 µM
TGI (HCC-2998 colon): > 100 µM
TGI (HCT-15 colon): > 100 µM
TGI (MALME-3M melanoma): > 100 µM
TGI (RXF 393 renal): > 100 µM
TGI (U251 CNS): > 100 µM

C=CCC(O[Si](C)(C)C(C)(C)C)c1cc(O[Si](C)(C)C(C)(C)C)ccc1OC (centres undefined)
TGI (A498 renal): > 100 µM
TGI (CCRF-CEM leukemia): > 100 µM
TGI (COLO 205 colon): > 100 µM
TGI (HCC-2998 colon): > 100 µM
TGI (HCT-15 colon): > 100 µM
TGI (MALME-3M melanoma): > 100 µM
TGI (RXF 393 renal): > 100 µM
TGI (U251 CNS): > 100 µM

Cc1nnc2n1N=C(c1ccccc1)C(c1ccccc1)S2 (centres undefined)
TGI (A498 renal): > 100 µM
TGI (ACHN renal): > 100 µM
TGI (CCRF-CEM leukemia): 77.1 µM
TGI (COLO 205 colon): 41.8 µM
TGI (HCC-2998 colon): > 100 µM
TGI (HCT-15 colon): > 100 µM
TGI (MALME-3M melanoma): > 100 µM
TGI (RXF 393 renal): 85.7 µM
TGI (U251 CNS): 72 µM

NC(=O)CCC(N=c1c2ccccc2n(O)c2ccccc12)C(=O)O (centres undefined)
TGI (A498 renal): > 100 µM
TGI (ACHN renal): > 100 µM
TGI (CCRF-CEM leukemia): > 100 µM
TGI (COLO 205 colon): > 100 µM
TGI (HCC-2998 colon): > 100 µM
TGI (HCT-15 colon): > 100 µM
TGI (MALME-3M melanoma): > 100 µM
TGI (U251 CNS): > 100 µM

COP(=O)(OC)OCN(C)CC/C=C(\C)CC/C=C(\C)CCC=C(C)C
TGI (A498 renal): > 100 µM
TGI (ACHN renal): 64.2 µM
TGI (CCRF-CEM leukemia): 51.9 µM
TGI (COLO 205 colon): 34 µM
TGI (HCC-2998 colon): 23.8 µM
TGI (HCT-15 colon): 30.3 µM
TGI (MALME-3M melanoma): 28.2 µM
TGI (RXF 393 renal): 49.1 µM
TGI (U251 CNS): 37.6 µM

CCOC(=O)c1c(N)sc2c1C(C(=O)OCC)CCCC2 (centres undefined)
TGI (A498 renal): 75.8 µM
TGI (ACHN renal): > 100 µM
TGI (COLO 205 colon): > 100 µM
TGI (HCC-2998 colon): > 100 µM
TGI (HCT-15 colon): > 100 µM
TGI (MALME-3M melanoma): > 100 µM
TGI (RXF 393 renal): > 100 µM
TGI (U251 CNS): > 100 µM

N[C@@H](CCC(=O)NC(Cc1ccccc1)C(=O)NCP(=O)(O)O)C(=O)O (some centres undefined)
TGI (A498 renal): > 100 µM
TGI (ACHN renal): > 100 µM
TGI (COLO 205 colon): > 100 µM
TGI (HCC-2998 colon): > 100 µM
TGI (HCT-15 colon): > 100 µM
TGI (MALME-3M melanoma): > 100 µM
TGI (U251 CNS): > 100 µM

CC1=C(CO)C(=O)OC(C(C)C2CCC3C4CC5OC56C(O)C(N5CC5)=CC(=O)C6(C)C4CCC23C)C1 (centres undefined)
TGI (A498 renal): 16.3 µM
TGI (ACHN renal): 19.5 µM
TGI (CCRF-CEM leukemia): 7.45 µM
TGI (HCC-2998 colon): 9.73 µM
TGI (HCT-15 colon): 12.9 µM
TGI (MALME-3M melanoma): 25.1 µM
TGI (RXF 393 renal): 26.9 µM
TGI (U251 CNS): 15.1 µM

N#Cc1ccccc1NC(=O)C(=O)C(C(=O)c1ccccc1F)C1OC(=O)c2ccccc21 (centres undefined)
TGI (A498 renal): > 100 µM
TGI (ACHN renal): > 100 µM
TGI (CCRF-CEM leukemia): 37.9 µM
TGI (COLO 205 colon): > 100 µM
TGI (HCC-2998 colon): 53.4 µM
TGI (HCT-15 colon): > 100 µM
TGI (RXF 393 renal): 87.6 µM
TGI (U251 CNS): 40.8 µM

From PubChem BioAssay (NCI)
